These results are taken from patent US10738024B2, “Compounds for treatment of angiogenesis-mediated diseases” (Indiana University Research and Technology Corporation, priority 2013, dated 2020).

Series [1] concerns choroidal neovascularization. The note with it: murine; cited from earlier work.
The subject of series [2] is reactive oxygen species (ROS). The note with it: keratinocytes exposed to UV radiation; cited from earlier work.
The subject of series [3] is p21^WAF1 (CDKN1A). The note with it: natural source compound; cited from earlier work.
For series [4], the system named is new vessel growth induced by bFGF. The note with it: chick chorioallantoic membrane model; cited from earlier work.
Series [5] has as its system NF-κB. The note with it: keratinocytes exposed to UV radiation; cited from earlier work.
Series [6] relates to cyclooxygenases 1 and 2. As to conditions: purified enzymes; cited from earlier work.
The test system of series [7] is JNK, p38 MAPK, ERK. The note with it: keratinocytes exposed to UV radiation; cited from earlier work.
Series [8] concerns prostaglandin synthesis. The note with it: microsome assay; cited from earlier work.
The test system of series [9] is retina. As to conditions: injection of 10 μM into the vitreous of normal adult mice; cited from earlier work.
Series [10] has as its system TNF-α, IL-6 and IL-8. The note with it: keratinocytes exposed to UV radiation; cited from earlier work.
Series [11] has as its system HUVECs. As to conditions: cited from earlier work.
Series [12] concerns Cdc2 (CDK1). The note with it: cited from earlier work.
The subject of series [13] is pathogenic neovascularization. As to conditions: in vivo; cited from earlier work.
The test system of series [14] is HRECs. Nature of the series: ALAMARBLUE proliferation assay in HRECs. Format: cell-based, human. As to conditions: for GI50: Homo sapiens, HREC, 50% growth inhibitory concentration, 48 hours, alamarBlue, read-out: GI50 HREC. On the procedure:
(§1) Particularly, in a 96-well clear bottom black plate, cells (2,500 cells per well) were seeded in a total volume of 100 μL EGM-2. After 24 hours of incubation of the plate at 37° C. and 5% CO2, a DMSO solution of synthetic cremastranone (1) or SH-11052 (2) was added in the concentration range of 0.5 nM to 500 μM (final DMSO concentration=1%). The plate was then further incubated for 48 hours before adding 11.1 μL of ALAMARBLUE® reagent to each well. Four hours after the addition of ALAMARBLUE®, fluorescence readings with excitation and emission wavelengths of 560 nm and 590 nm, respectively, were taken and the data were analyzed in GraphPad Prism software (v. 6.0). Dose response curves were generated and the GI50 values were calculated using the following equation: Y=100/(1+10^(X−Log GI50)).
(§2) For proliferation assays, cells (2500 per well) were seeded in a 96-well clear bottom black polystyrene plate in a total volume of 100 μL. HUVECs and HRECs were grown in EGM-2 and CSC+ media respectively, while 92-1 and Y79 cells were maintained in RPMI+10% FBS, penicillin/streptomycin and RB medium (IMDM+10% FBS+penicillin/streptomycin+10 μg/mL insulin+55 μM β-mercaptoethanol) respectively. After 24 hours of incubation of the plate at 37° C., the compounds were dissolved in DMSO and added in the concentration range of 500 μM to 0.5 nM. The plate was then incubated at 37° C. and 5% CO2 conditions for 48 hours before adding 11.1 μL of alamar blue reagent for each well. Four hours after the addition of ALAMARBLUE® reagent, fluorescence readings with excitation and emission wavelengths of 560 nm and 590 nm respectively were taken and the data was analyzed in GraphPad Prism software. The dose response curves were generated and the GI50 values were calculated using the equation: Y=100/(1+10^(X−Log GI50)) (Table 1).

For series [15], the system named is HUVECs. The experiment in a line: ALAMARBLUE proliferation assay in HUVECs. Format: cell-based, human. As to conditions: for GI50: Homo sapiens, HUVEC, 48 h, 50% growth inhibitory concentration, alamarBlue. On the procedure:
as §1, §2
(In general: Alamar Blue is a resazurin reagent that responds to reducing activity.)

Series [16] relates to 92-1 uveal melanoma cells. Nature of the series: ALAMARBLUE proliferation assay in 92-1 uveal melanoma cells. Format: cell-based. As to conditions: 50% growth inhibitory concentration, 48 hours, alamarBlue. On the procedure:
as §2

The subject of series [17] is Y-79 retinoblastoma cells. The experiment in a line: ALAMARBLUE proliferation assay in Y-79 retinoblastoma cells. Format: cell-based. As to conditions: 50% growth inhibitory concentration, 48 hours. Here is the method:
as §2

Consider `COc1ccc(CC2COc3cc(O)c(OC)c(O)c3C2=O)cc1O` (centres unmarked) [cremastranone, 5,7-dihydroxy-3-(3-hydroxy-4-methoxybenzyl)-6-methoxychroman-4-one], for which the “blocking pathogenic neovascularization, laser photocoagulation model of choroidal neovascularization” value in series [1] is reported as “showed efficacy”. Moreover, the “production of reactive oxygen species (ROS)” value in [2] was “blocked”. Also, the “expression of p21^WAF1 (CDKN1A)” value in series [3] is given as “induces expression”. Moreover, the “blocking new vessel growth induced by bFGF” value in series [4] was “as effective as retinoic acid”. For the same compound, in series [5], the “nuclear translocation of NF-κB” value is given as “blocked nuclear translocation”. For the same compound, the “function of cyclooxygenases 1 and 2” value in series [6] is reported as “without marked effects”. The “phosphorylation of MAPKs (JNK, p38, ERK)” value in series [7] is “decreased phosphorylation”. In series [8], the “prostaglandin synthesis from arachidonic acid” value is reported as “blocked prostaglandin synthesis”. Further, in series [9], the “apoptosis of retinal cells” value was “nor did it induce apoptosis” and the “cytotoxic or inflammatory effects on the retina” value is “no cytotoxic or inflammatory effects”. For the same compound, the “production of cytokines TNF-α, IL-6 and IL-8” value in [10] was “blocked”. Besides, the “50% growth inhibitory (GI50) concentration value in HUVEC proliferation assay” value in series [11] (reported for compound isolated from C. appendiculata) was “low micromolar range”. Also, the “proliferation of HUVECs” value in [11] (via G2/M phase cell cycle arrest) was “blockade of the proliferation”. For the same compound, the “expression of Cdc2 (CDK1)” value in series [12] is on record as “down-regulated”. In series [13], the “blocking pathogenic neovascularization, oxygen-induced retinopathy model” value is “showed efficacy”.
Turning to `COC(=O)c1cc(/C=C2\COc3cc(OC)c(OC)c(OC)c3C2=O)ccc1OC` [Compound 11r], the 50% growth inhibitory concentration (GI50) in series [14] was 5.5 µM; in series [15], 3.2 µM; in [16] it was > 100 µM; in [17], 6 µM.
Turning to `COc1ccc(/C=C2\COc3cc(OC)c(OC)c(OC)c3C2=O)cc1OCC(=O)OC(C)(C)C` [Compound 11l], the concentration for 50% growth inhibition (GI50) was > 500 µM in series [14], 27 µM in series [15], > 500 µM in series [16] and 21 µM in series [17].
As for `C#CCOc1cc(/C=C2\COc3cc(OC)c(OC)c(OC)c3C2=O)ccc1OC` [Compound 11g], the GI50 in [14] came out at 39 µM; in series [15], 21 µM; in series [16], 310 µM; in series [17], 32 µM.
For `COc1cc2c(c(OC)c1OC)C(=O)/C(=C/c1ccc([N+](=O)[O-])cc1)CO2` [Compound 11j], the concentration for 50% growth inhibition (GI50) in [14] amounted to 14 µM; in series [15] it was 6 µM; in series [16], 23 µM; in series [17] it was 9 µM.
On the same counts, the results for `COc1ccc(/C=C2\COc3cc(OC)c(OC)c(O)c3C2=O)cc1O` [Compound 11q] are 7 µM, 5.4 µM, 11 µM and 6 µM.
On to `COc1c(O)cc2occ(Cc3ccccc3)c(=O)c2c1O` [Compound 9b, 3-benzyl-5,7-dihydroxy-6-methoxy-4H-chromen-4-one], for which the GI50 in series [14], in series [15], in series [16] and in series [17] was > 100 µM each time.
As for `COc1cc(OC)c2c(c1)OCC(Cc1ccc(OC)c(O)c1)C2=O` (centres unmarked) [Compound 15b], the GI50 was 1.6 µM in series [14], 6.8 µM in [15], > 250 µM in series [16] and 4.2 µM in series [17].
For `COc1ccc(CC2COc3cc(O)c(OC)c(O)c3C2=O)cc1O` (racemic) [Compound 1, 5,7-dihydroxy-3-(3-hydroxy-4-methoxybenzyl)-6-methoxychroman-4-one], the GI50 is 0.217 µM in [14], 0.377 µM in series [15], 9.8 µM in [16] and 47 µM in series [17]. In addition, in series [14] (result in words, FIGS. 6B, 6D, 14), the “in vitro anti-proliferative activity in HRECs” value is reported as “demonstrated in vitro anti-proliferative activity”. Moreover, the “in vitro anti-proliferative activity in HUVECs” value in [15] (result in words, FIGS. 6A, 6C) was “demonstrated in vitro anti-proliferative activity”.
For the compound `C=C(Cc1ccc(OC)c(O)c1)C(=O)c1c(O)cc(OC)c(OC)c1OC` [Compound 7, 1-(6-hydroxy-2,3,4-trimethoxyphenyl)-2-(3′-hydroxy-4′-methoxybenzyl)prop-2-en-1-one], the 50% growth inhibitory concentration (GI50) in series [14] was determined as 10 µM; in series [15], 1.4 µM; in series [16], 17 µM; in [17] it was 8 µM.
Consider `COc1cc2c(c(OC)c1OC)C(=O)/C(=C/c1cccc(Cl)c1Cl)CO2` [Compound 11v], for which the 50% growth inhibitory concentration (GI50) in [14] was 25.6 µM; in [15], 10.4 µM; in series [16], 31 µM; in series [17] it was 18 µM.
As for `COc1ccc(/C=C2\COc3cc(OC)c(OC)c(OC)c3C2=O)cc1OCCN1CCCC1` [Compound 11k, (E)-5,6,7-trimethoxy-3-(4-methoxy-3-(2-(pyrrolidin-1-yl)ethoxy)benzylidene)chroman-4-one], the GI50 in series [14] came to 0.185 µM; in [15] it was 3.5 µM; in [16] it was 6 µM; in series [17] it was 3.2 µM.
`COc1cc2c(c(O)c1OC)C(=O)C(Cc1ccccc1)CO2` (centres unmarked) [Compound 8b, 3-benzyl-5-hydroxy-6,7-dimethoxychroman-4-one]: the concentration for 50% growth inhibition (GI50) in series [14] is > 100 µM; in series [15] it was 40 µM; in [16], > 100 µM; in series [17], > 100 µM.
As for `COc1cc2c(c(OC)c1OC)C(=O)/C(=C/c1ccccc1[N+](=O)[O-])CO2` [Compound 11x], the 50% growth inhibitory concentration (GI50) was found to be 8.6 µM in [14], 9 µM in [15], 29 µM in [16] and 8 µM in series [17].
Regarding `COc1cc(O)c(C(=O)/C=C/c2ccccc2)c(OC)c1OC` [Compound 3b], the GI50 in series [14], in [15], in series [16] and in series [17] was > 100 µM in each case.
`COc1ccc(/C=C/C(=O)c2c(O)cc(OC)c(OC)c2OC)cc1OCc1ccccc1` [Compound 3a, (E)-3-(3′-benzyloxy-4′-methoxyphenyl)-1-(6-hydroxy-2,3,4-trimethoxyphenyl) prop-2-en-1-one]: the GI50 in series [14] is > 100 µM; in series [15], 94 µM; in series [16] it was > 100 µM; in [17], > 100 µM.
Turning to `COc1ccc(CC2COc3cc(OC)c(OC)c(OC)c3C2=O)cc1C(=O)O` (centres unmarked) [Compound 6f], the GI50 in series [14] was 131 µM; in [15] it was 92 µM; in series [16] it was > 250 µM; in series [17] it was > 250 µM.
For `COc1ccc(/C=C2\COc3cc(OC)c(OC)c(OC)c3C2=O)cc1O` [Compound 11a, (E)-3-(3′-hydroxy-4′-methoxybenzylidene)-5,6,7-trimethoxychroman-4-one], the concentration for 50% growth inhibition (GI50) was 46 µM in series [14], 8 µM in [15], 0.22 µM in series [16] and 44 µM in series [17].
Turning to `COc1ccc(CC2COc3cc(OC)c(OC)c(O)c3C2=O)cc1O` (centres unmarked) [Compound 8a], the GI50 in [14] was > 100 µM; in series [15] it was 44 µM; in series [16], > 100 µM; in [17] it was > 100 µM.

The term GI50 denotes the concentration giving 50% growth inhibition.
